According to patent EP2057185B1, “POLYMYXIN DERIVATIVES AND USES THEREOF” (Northern Antibiotics Oy, priority 2006, dated 2008):
Bridge positions count the residues as written; N and C are the ends. Square brackets hold non-standard residues; d marks the D form. Peptide text beside a SMILES is read from it. Dab = NCC[C@H](N)C(=O)O; Abu = CC[C@H](N)C(=O)O

What was measured:
E. cloacae ATCC23355 = assay: MIC by E-strips on Mueller-Hinton agar with or without NAB7061 (4 µg/ml); assay type: cell-based, Enterobacter cloacae; conditions: ratio of the MIC of the antibiotic in the absence of NAB 7061 to that in the presence of 4 µg/ml of NAB 7061; E. cloacae ATCC 23355
Procedure: (§1) MICs were determined by using E-strips (Biodisk Ltd., Solna, Sweden) according to the manufacturer's instructions.
(§2) The strains originated from ATCC (11 strains), CCUG (11 strains), and NCTC (The National Collection of Type Cultures, Colindale, U.K.; 2 strains). Eight strains (the F-strains) were purchased from Mobidiag Ltd., Helsinki, Finland.

E. coli ATCC25922 = assay: as above; assay type: cell-based, Escherichia coli; conditions: ratio of the MIC of the antibiotic in the absence of NAB 7061 to that in the presence of 4 µg/ml of NAB 7061; E. coli ATCC 25922
Procedure: as §1, §2

E. coli IH3080 [1] = assay: as above; assay type: cell-based, Escherichia coli; conditions: ratio of the MIC of the antibiotic in the absence of NAB 7061 to that in the presence of 4 µg/ml of NAB 7061; E. coli IH 3080
Procedure: as §1, §2

[2] = tested on: E. coli (ATCC25922 and IH3080), K. pneumoniae ATCC13883, and E. cloacae ATCC23355; assay: E-strip MIC, summary over the tested strains of Example 7; assay type: cell-based; conditions: range over the tested strains; NAB7061 4 µg/ml
Procedure: as §1

K. pneumoniae ATCC13883 = assay: MIC by E-strips on Mueller-Hinton agar with or without NAB7061 (4 µg/ml); assay type: cell-based, Klebsiella pneumoniae; conditions: ratio of the MIC of the antibiotic in the absence of NAB 7061 to that in the presence of 4 µg/ml of NAB 7061; K. pneum. ATCC 13883
Procedure: as §1, §2

E. coli IH3080 [3] = assay: Growth inhibition around wells on LB plates containing rifampin (sensitization); assay type: cell-based, Escherichia coli; conditions: well containing 4 µg of compound; for Antibacterial activity in the presence of rifampin concn (µg/ml) of 0: plates with no rifampin; for Antibacterial activity in the presence of rifampin concn (µg/ml) of 0.1: rifampin 0.1 µg/ml; for Antibacterial activity in the presence of rifampin concn (µg/ml) of 1.0: rifampin 1.0 µg/ml
Procedure: From an overnight-grown culture of IH3080 on LB agar, a suspension of approx. 10^8 cells/ml was prepared in 0.9% NaCl. Aliquots of this suspension were then pipetted on the agar plates and the plates were gently shaken to spread the suspension evenly on the entire surface of the plate. Thereafter, the unabsorbed part of the suspension was removed by using a Pasteur pipette. After the surface had dried, small wells (diameter, 2 mm) were drilled on the plates (five wells per plate) by using a sterile sharp-edged narrow metal tube, single-use pipette tip, and vacuum suction. […] Controls included 0.9% NaCl solution without the compound to be tested. The plates were then incubated for 18 h at 37°C whereafter the diameters of growth inhibition zones around each well were measured; the diameter of the well itself was […]. Finally, the diameters were converted to surface areas of growth inhibition (in square mm). […] Louis, MO, U.S.A).

E. coli IH3080 [4] = assay: Growth inhibition around wells on LB agar plates; assay type: cell-based, Escherichia coli; conditions: 18 h at 37°C; for Antibacterial activity at 4 µg: growth inhibition area around a well containing 4 µg of compound; for Antibacterial activity at 10 µg: growth inhibition area around a well containing 10 µg of compound
Procedure: Peptides synthesized in Example 1, all carrying at least two (2) but not more than three (3) positive charges, were studied for their ability to inhibit the growth of E. coli. This was tested employing LB agar (LB Agar Lennox, Difco, BD, Sparks, MD, U.S.A) plates. The indicator organism E. coli IH3080 (K1:O18) was an encapsulated strain originally isolated from a neonate suffering from meningitis (Vaara et al. 1984) and obtained from National Public Health Institute, Helsinki, Finland.
From an overnight-grown culture of IH3080 on LB agar, a suspension of approx. 10^8 cells/ml was prepared in 0.9% NaCl. Aliquots of this suspension were then pipetted on the agar plates and the plates were gently shaken to spread the suspension evenly on the entire surface of the plate. Thereafter, the unabsorbed part of the suspension was removed by using a Pasteur pipette. After the surface had dried, small wells (diameter, 2 mm) were drilled on the plates (five wells per plate) by using a sterile sharp-edged narrow metal tube, single-use pipette tip, and vacuum suction. […] Controls included 0.9% NaCl solution without the compound to be tested. The plates were then incubated for 18 h at 37°C whereafter the diameters of growth inhibition zones around each well were measured; the diameter of the well itself was […]. Finally, the diameters were converted to surface areas of growth inhibition (in square mm).

CC[C@H]1OC(=O)[C@H](C)[C@@H](O[C@H]2C[C@@](C)(OC)[C@@H](O)[C@H](C)O2)[C@H](C)[C@@H](O[C@@H]2O[C@H](C)C[C@H](N(C)C)[C@H]2O)[C@](C)(O)C[C@@H](C)CN(C)[C@H](C)[C@@H](O)[C@]1(C)O [Azithromycin, azithromycin]
Sensitization factor (E. cloacae ATCC23355): 32 | Sensitization factor (E. coli ATCC25922): 24 - 64 | Sensitization factor (E. coli IH3080 [1]): 31 - 94 | Sensitization factor [2]: 31-94 | Sensitization factor (K. pneumoniae ATCC13883): 31 - 43

CC[C@H]1OC(=O)[C@H](C)[C@@H](O[C@H]2C[C@@](C)(OC)[C@@H](O)[C@H](C)O2)[C@H](C)[C@@H](O[C@@H]2O[C@H](C)C[C@H](N(C)C)[C@H]2O)[C@](C)(O)C[C@@H](C)C(=O)[C@H](C)[C@@H](O)[C@]1(C)O [Erythromycin, erythromycin]
Sensitization factor (E. cloacae ATCC23355): 21 - 43 | Sensitization factor (E. coli ATCC25922): 32 - 48 | Sensitization factor (E. coli IH3080 [1]): 32 - 42 | Sensitization factor [2]: 21-48 | Sensitization factor (K. pneumoniae ATCC13883): 24 - 48

CC(=O)O[C@H]1C[C@@]2(C)[C@@H](C[C@@H](O)[C@H]3[C@@]4(C)CC[C@@H](O)[C@@H](C)[C@@H]4CC[C@@]32C)/C1=C(\CCC=C(C)C)C(=O)O [Fusidic acid, fusidic acid]
Sensitization factor (E. cloacae ATCC23355): > 8 | Sensitization factor (E. coli ATCC25922): > 43 | Sensitization factor (E. coli IH3080 [1]): > 43 | Sensitization factor (K. pneumoniae ATCC13883): > 4

CC(=O)NC[C@H]1CN(c2ccc(N3CCOCC3)c(F)c2)C(=O)O1 [Linezolid, linezolid]
Sensitization factor (E. cloacae ATCC23355): > 8 | Sensitization factor (E. coli ATCC25922): > 11 | Sensitization factor (E. coli IH3080 [1]): > 8 | Sensitization factor (K. pneumoniae ATCC13883): > 4

C/C(=C\C(=O)OCCCCCCCCC(=O)O)C[C@@H]1OC[C@H](C[C@@H]2O[C@H]2[C@@H](C)[C@H](C)O)[C@@H](O)[C@H]1O [Mupirocin, mupirocin]
Sensitization factor (E. cloacae ATCC23355): 250 - 512 | Sensitization factor (E. coli ATCC25922): 64 - 170 | Sensitization factor (E. coli IH3080 [1]): 64 - 85 | Sensitization factor [2]: 24-512 | Sensitization factor (K. pneumoniae ATCC13883): 24 - 32

CC[C@@H]1NC(=O)[C@H](CC(C)C)NC(=O)[C@@H](Cc2ccccc2)NC(=O)[C@H](CCN)NC(=O)[C@@H](NC(=O)[C@H](CCN)NC(=O)[C@@H](N)[C@@H](C)O)CCNC(=O)[C@H]([C@@H](C)O)NC(=O)[C@H](CC)NC1=O [NAB 701] (H-T[Dab][Dab][Dab][dF]L[Abu][Abu]T; lactam 3-C)
Antibacterial activity in the presence of rifampin concn (µg/ml) of 0 (E. coli IH3080 [3]): 0 square millimeters | Antibacterial activity in the presence of rifampin concn (µg/ml) of 0.1 (E. coli IH3080 [3]): 0 square millimeters | Antibacterial activity in the presence of rifampin concn (µg/ml) of 1.0 (E. coli IH3080 [3]): 0 square millimeters | Antibacterial activity at 4 µg (E. coli IH3080 [4]): 0 square millimeters | Antibacterial activity at 10 µg (E. coli IH3080 [4]): 0 square millimeters

CC[C@H](NC(=O)[C@@H](N)[C@@H](C)O)C(=O)N[C@H]1CCNC(=O)[C@H]([C@@H](C)O)NC(=O)[C@H](CCN)NC(=O)[C@H](CCN)NC(=O)[C@H](CC(C)C)NC(=O)[C@@H](Cc2ccccc2)NC(=O)[C@H](CCN)NC1=O [NAB 704] (H-T[Abu][Dab][Dab][dF]L[Dab][Dab]T; lactam 3-C)
Antibacterial activity in the presence of rifampin concn (µg/ml) of 0 (E. coli IH3080 [3]): 0 square millimeters | Antibacterial activity in the presence of rifampin concn (µg/ml) of 0.1 (E. coli IH3080 [3]): 0 square millimeters | Antibacterial activity in the presence of rifampin concn (µg/ml) of 1.0 (E. coli IH3080 [3]): 24 square millimeters | Antibacterial activity at 4 µg (E. coli IH3080 [4]): 0 square millimeters | Antibacterial activity at 10 µg (E. coli IH3080 [4]): 0 square millimeters

CC[C@H](NC(=O)[C@@H](NC(=O)[C@@H](N)CC)[C@@H](C)O)C(=O)N[C@H]1CCNC(=O)[C@H]([C@@H](C)O)NC(=O)[C@H](CCN)NC(=O)[C@H](CCN)NC(=O)[C@H](CC(C)C)NC(=O)[C@@H](Cc2ccccc2)NC(=O)[C@H](CCN)NC1=O [NAB 705] (H-[Abu]T[Abu][Dab][Dab][dF]L[Dab][Dab]T; lactam 4-C)
Antibacterial activity in the presence of rifampin concn (µg/ml) of 0 (E. coli IH3080 [3]): 0 square millimeters | Antibacterial activity in the presence of rifampin concn (µg/ml) of 0.1 (E. coli IH3080 [3]): 0 square millimeters | Antibacterial activity in the presence of rifampin concn (µg/ml) of 1.0 (E. coli IH3080 [3]): 5 square millimeters | Antibacterial activity at 4 µg (E. coli IH3080 [4]): 0 square millimeters | Antibacterial activity at 10 µg (E. coli IH3080 [4]): 0 square millimeters

CO[C@H]1/C=C/O[C@@]2(C)Oc3c(C)c(O)c4c(O)c(c(/C=N/N5CCN(C)CC5)c(O)c4c3C2=O)NC(=O)/C(C)=C\C=C\[C@H](C)[C@H](O)[C@@H](C)[C@@H](O)[C@@H](C)[C@H](OC(C)=O)[C@@H]1C [Rifampin, rifampin]
Sensitization factor (E. cloacae ATCC23355): 750 - 1500 | Sensitization factor (E. coli ATCC25922): 250 - 750 | Sensitization factor (E. coli IH3080 [1]): 170 - 350 | Sensitization factor (K. pneumoniae ATCC13883): 250 - 500
